Results on 1 molecule are retold here after US8303999B2, “Natural extract containing xanthohumol, method for the production thereof and products produced therefrom” (Ta-Xan AG, priority 2004, dated 2012).

A short description of the data set: solubility limit of XN in aqueous solution (water). Type of data set: physicochemical. The note with it: read-out: solubility limit of XN in typical aqueous solutions. On the procedure:
For producing roasted extract comprising XN a hot aqueous extract of the ground roasted products e.g. of barley, wheat, rye as well as the corresponding malts, coffee beans or cacao beans is prepared. A hop extract comprising XN is added thereto at the beginning of the heating period. The extraction of xanthohumol in the extractions of the roasted products leads to a XN content which is by far higher than the solubility limit of XN in typical aqueous solutions. This amounts to 1.3 mg/l of XN at a water temperature of 23° C. and to 1.1 mg/l of XN at a water temperature of 8° C.

What is called solubility is the concentration that dissolves in the medium under given conditions.

In brackets after ≈: the same amount, converted by molar mass. Like-named read-outs stand apart in the source and are kept apart here.

On to `COc1cc(O)c(CC=C(C)C)c(O)c1C(=O)/C=C/c1ccc(O)cc1` [XN, xanthohumol], for which the solubility is, setting by setting: (water temperature of 8° C.) 1.1 µg/mL (≈ 3.1 µM); (water temperature of 23° C.) 1.3 µg/mL (≈ 3.67 µM).
